Measurements reported in patent US7482355B2, “Pyrimidine derivatives as modulators of chemokine receptor activity” (AstraZeneca AB, priority 2002, dated 2009).
pIC50: −log10 of the molar value.

molecular target: T1, hrCXCR2 (Homo sapiens, UniProt P25025); test: Ligand binding assay, [125I]IL-8 displacement from membranes of HEK 293 cells expressing hrCXCR2; conditions: [125I]IL-8 (~50 pM), HEK 293 hrCXCR2 membranes, 1.5 hours at room temperature
T1 construct: expressed in transfected cells; host or cells: HEK 293 cells (ECACC No. 85120602), membranes of the highest expressing clone
T1 sequence (P25025 1-360): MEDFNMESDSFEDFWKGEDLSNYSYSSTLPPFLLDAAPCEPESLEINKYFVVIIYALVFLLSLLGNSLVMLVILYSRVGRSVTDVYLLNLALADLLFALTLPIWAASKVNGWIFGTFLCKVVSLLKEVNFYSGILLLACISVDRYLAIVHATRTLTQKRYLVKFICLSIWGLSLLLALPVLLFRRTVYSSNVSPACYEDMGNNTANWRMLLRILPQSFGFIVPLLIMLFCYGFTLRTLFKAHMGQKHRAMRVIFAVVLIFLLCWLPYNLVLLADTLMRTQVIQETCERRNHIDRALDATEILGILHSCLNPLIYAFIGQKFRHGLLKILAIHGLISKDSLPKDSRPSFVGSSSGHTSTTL
Description: [^125I]IL-8 (human, recombinant) was purchased from Amersham, U.K. with a specific activity of 2,000 Ci/mmol. All other chemicals were of analytical grade. High levels of hrCXCR2 were expressed in HEK 293 cells (human embryo kidney 293 cells ECACC No. 85120602) (Lee et al. (1992) J. Biol. Chem. 267 pp16283-16291). hrCXCR2 cDNA was amplified and cloned from human neutrophil mRNA. The DNA was cloned into PCRScript (Stratagene) and clones were identified using DNA. The coding sequence was sub-cloned into the eukauyotic expression vector RcCMV (Invitrogen). Plasmid DNA was prepared using Quiagen Megaprep 2500 and transfected into HEK 293 cells using Lipofectamine reagent (Gibco BRL). Cells of the highest expressing clone were harvested in phosphate-buffered saline containing 0.2% (w/v) ethylenediaminetetraacetic acid (EDTA) and centrifuged (200 g, 5 min.). The cell pellet was resuspended in ice cold homogenisation buffer [10 mM HEPES (pH 7.4), 1 mM dithiothreitol, 1 mM EDTA and a panel of protease inhibitors (1 mM phenyl methyl sulphonyl fluoride, 2 μg/ml soybean trypsin inhibitor, 3 mM benzamidine, 0.5 μg/ml leupeptin and 100 μg/ml bacitracin)] and the cells left to swell for 10 minutes. The cell preparation was disrupted using a hand held glass mortar/PTFE pestle homogeniser and cell membranes harvested by centrifugation (45 minutes, 100,000 g, 4° C.). The membrane preparation was stored at −70° C. in homogenisation buffer supplemented with Tyrode's salt solution (137 mM NaCl, 2.7 mM KCl, 0.4 mM NaH2PO4), 0.1% (w/v) gelatin and 10% (v/v) glycerol.
All assays were performed in a 96-well MultiScreen 0.45 μm filtration plates (Millipore, U.K.). Each assay contained ˜50 pM [^125I]IL-8 and membranes (equivalent to ˜200,000 cells) in assay buffer [Tyrode's salt solution supplemented with 10 mM HEPES (pH 7.4), 1.8 mM CaCl2, 1 mM MgCl2, 0.125 mg/ml bacitracin and 0.1% (w/v) gelatin]. […] The backing plate was removed from the MultiScreen plate assembly, the filters dried at room temperature, punched out and then counted on a Cobra γ-counter.

Row | SMILES | pIC50
1 | C[C@H](CO)Nc1cc(O)nc(SCc2cccc(Cl)c2)n1 [Example 3, 2-[(3-Chlorobenzyl)thio]-6-{[(1R)-2-hydroxy-1-methylethyl]amino}-4-pyrimidinol] | 6.10
2 | C[C@H](CO)Nc1nc(SCc2cccc(F)c2)nc(O)c1F [Example 33, 2-[(3-fluorobenzyl)thio]-5-fluoro-6-{[(1R)-2-hydroxy-1-methylethyl]amino}pyrimidin-4-ol] | 7.50
3 | C[C@H](CO)Nc1nc(SCc2cccc(F)c2F)nc(O)c1SCc1ncon1 [Example 26, 2-[[(2,3-Difluorophenyl)methyl]thio]-6-[[(1R)-2-hydroxy-1-methylethyl]amino]-5-[(1,2,4-oxadiazol-3-ylmethyl)thio]-4-pyrimidinol] | 7.00
